In patent US20210077570A1, “COMPOSITION COMPRISING A POLYMYXIN AND TEICOPLANIN” (GALENUS G.H. AG, priority 2018, published 2021):
Read-outs that look alike come from different tables or passages of the source. Positions of bridges follow the written chain, without caps; N, C: chain ends. Non-standard residues stand in square brackets, D forms with d. Residues, ends and D or L forms follow the SMILES beside them. *: point of attachment. Heptanoyl(5-Me) = CCC(C)CCCC(=O)*; Dab = NCC[C@H](N)C(=O)O

Legend:
A. haemolyticus 1655843 = test: Checkerboard analysis MIC/FIC and MBC/FBC, colistin sulphate plus teicoplanin; type: cell-based; conditions: agent alone, CAMHB, inoculum 5*10^5 CFU/ml; for MBC: A. haemolyticus
Procedure: Checkerboard analysis to determine minimal inhibitory concentration (MIC)/fractional inhibitory concentration (FIC) and minimal […] (MBC)/fractional […] (FBC) values of colistin sulphate (CS) plus teicoplanin (TP) for 6 Gram-negative strains with a bacterial load 5(1−10)*10^5 CFU/ml in a cation-adjusted Mueller-Hinton broth (CAMHB). • a. Antimicrobial stock solutions were prepared using sterile distilled water • b. CS was added along the ordinate; TP was added along the abscissa to 96 well, flat bottom, polystyrene panels with no treatment. Colistin alone was tested in triplicates. • c. Serial 2-fold dilutions starting with 640 μg/ml CS and 640 μg/ml TP were made; 15 μl volume of the serial dilutions were added for each agent to the appropriate wells; final volume at 30 μl • d. For each agent tested alone an additional 15 μl media was added to the well. 30 μl were added in control wells where none of the agent was tested. The negative control well contains 150 μl media without any additions • e. From an overnight bacterial culture in tryptic soy broth, 100 μl was added to 10 mL of fresh tryptic soy broth. This was then incubated at 37° C. for 1.5 hour at 180 rpm. • f. Bacteria in 120 μl CAMHB were added to each well (end concentration 5(1−10)*10^5 CFU/ml) • g. Plates were incubated at 37° C. in an ambient air incubator for 24 h • h. Turbidity at OD600 is determined with a plate photometer • i. […] Determination of the fractional inhibitory concentration (FIC) index and fractional bactericidal concentration (FBC) index and characterization of antimicrobial interactions was assessed • FIC calculation was carried out as: (MIC of drug A, tested in combination)/(MIC of drug A, tested alone)+(MIC of drug B, tested in combination)/(MIC of drug B, tested alone). FBC calculation was carried out just as well • Interactive categories were calculated from checkerboard analysis using MIC results from testing each agent alone and MIC results from the combination wells adjacent to the wells with growth in them […]

S. maltophilia 1237289 = test: as above; type: cell-based, Stenotrophomonas maltophilia; conditions: agent alone, CAMHB; for MIC: S. maltophilia 1237289; for MBC: S. maltophilia, second line of Table 2 (1237289 by order)
Procedure: (§1) Checkerboard analysis to determine minimal inhibitory concentration (MIC)/fractional inhibitory concentration (FIC) and minimal […] (MBC)/fractional […] (FBC) values of colistin sulphate (CS) plus teicoplanin (TP) for 6 Gram-negative strains with a bacterial load 5(1−10)*10^5 CFU/ml in a cation-adjusted Mueller-Hinton broth (CAMHB). • a. Antimicrobial stock solutions were prepared using sterile distilled water • b. CS was added along the ordinate; TP was added along the abscissa to 96 well, flat bottom, polystyrene panels with no treatment. Colistin alone was tested in triplicates. • c. Serial 2-fold dilutions starting with 640 μg/ml CS and 640 μg/ml TP were made; 15 μl volume of the serial dilutions were added for each agent to the appropriate wells; final volume at 30 μl • d. For each agent tested alone an additional 15 μl media was added to the well. 30 μl were added in control wells where none of the agent was tested. The negative control well contains 150 μl media without any additions • e. From an overnight bacterial culture in tryptic soy broth, 100 μl was added to 10 mL of fresh tryptic soy broth. This was then incubated at 37° C. for 1.5 hour at 180 rpm. • f. Bacteria in 120 μl CAMHB were added to each well (end concentration 5(1−10)*10^5 CFU/ml) • g. Plates were incubated at 37° C. in an ambient air incubator for 24 h • h. Turbidity at OD600 is determined with a plate photometer • i. By using a one-time inoculator 3 μl from each well of the 96-well plate were transferred to three blood agar plates. The plates were incubated over night at 37° C. in an ambient air incubator • j. MIC values are defined as lowest concentration which restricts bacterial growth to OD600≤0.1 • k. MBC values were determined by visual reading the lowest concentration which inhibits 99.9% of the growth of bacteria in the wells • l. Determination of the fractional inhibitory concentration (FIC) index and fractional bactericidal concentration (FBC) index and characterization of antimicrobial interactions was assessed • FIC calculation was carried out as: (MIC of drug A, tested in combination)/(MIC of drug A, tested alone)+(MIC of drug B, tested in combination)/(MIC of drug B, tested alone). FBC calculation was carried out just as well • Interactive categories were calculated from checkerboard analysis using MIC results from testing each agent alone and MIC results from the combination wells adjacent to the wells with growth in them
b. Indifference; FIC/FBC>0.5 to <4.0
c. Antagonism; FIC/FBC≥4.0

[1] = test system: non-multiplying stationary phase bacteria; test: Elimination of dormant (resistant) bacteria, long term non-multiplying stationary phase model; type: cell-based; conditions: nutrient depleted 5-6 day stationary phase cell suspension in PBS
Procedure: In order to test the elimination of dormant (resistant) bacteria the long term non-multiplying stationary phase model is used (Hu et al 2010 [18]). Long-term stationary phase cultures of 5 to 6 days are chosen with the test strains as described above. These late stationary phase cultures, may represent a mixed population with a dynamic balance of cell division and cell death. In order to induce the bacterial cells into a non-replicating stage, the cells are washed and incubated with PBS. […] The nutrient depleted 5-6 day stationary phase cell suspension now called non-multiplying stationary phase bacteria is used to test TEC and CS as mono substances or in combinations with the concentrations as mentioned above.

A. nosocomialis 1461911 = test: Checkerboard analysis MIC/FIC and MBC/FBC, colistin sulphate plus teicoplanin; type: cell-based; conditions: agent alone, CAMHB, inoculum 5*10^5 CFU/ml; for MIC: A. nosocomialis 1461911, 24 h; for MBC: A. nosocomialis
Procedure: as §1, with “them […]” for “them”
b. Indifference; FIC/FBC>0.5 to <4.0 c. Antagonism; FIC/FBC≥4.0 b. A. nosocomialis 1461911 (IHMA), colistin resistant

S. maltophilia 1221783 = test: as above; type: cell-based, Stenotrophomonas maltophilia; conditions: agent alone, CAMHB, inoculum 5*10^5 CFU/ml; for MIC: S. maltophilia 1221783, 24 h; for MBC: S. maltophilia, first line of Table 2 (1221783 by order)
Procedure: as §1, with “them […]” for “them”
b. Indifference; FIC/FBC>0.5 to <4.0 c. Antagonism; FIC/FBC≥4.0 […]
e. Stenotrophomonas maltophilia 1221783 (IHMA), colistin susceptible

A. guillouiae 1285286 = test: as above; type: cell-based; conditions: agent alone, CAMHB, inoculum 5*10^5 CFU/ml; for MIC: A. guillouiae 1285286, 24 h; for MBC: A. guillouiae
Procedure: as §1, with “them […]” for “them”
b. Indifference; FIC/FBC>0.5 to <4.0 c. Antagonism; FIC/FBC≥4.0 d. A. guillouiae 1285286 (IHMA), colistin resistant

A. junii 1397597 = test: as above; type: cell-based; conditions: agent alone, CAMHB, inoculum 5*10^5 CFU/ml; for MBC: A. junii; for MIC: A. junii 1397597, 24 h
Procedure: as §1, with “them […]” for “them”
b. Indifference; FIC/FBC>0.5 to <4.0 c. Antagonism; FIC/FBC≥4.0 a. A. junii 1391597 (IHMA), colistin resistant

[2] = test system: stationary bacteria from biofilm; test: Elimination of stationary bacteria from biofilm (catheter piece in CAMHB); type: cell-based; conditions: for Elimination of bacteria from biofilm: conclusion, TEC alone in case a Gram-positive strain is tested; for Colony counts, incubated with as compared without a catheter piece / Increase (at least two dilution steps) of MIC, incubated with as compared without a catheter piece: tubes showing no gross turbidity; for Colony counts, incubated with as compared without a catheter piece: after centrifugation, any of the strains tested, TEC mono in case a Gram-positive strain is tested; for Increase (at least two dilution steps) of MIC, incubated with as compared without a catheter piece: MIC of CS, or of TEC in case a Gram-positive strain is tested
Procedure: To test the elimination of stationary bacteria from biofilm in vitro in CAMHB comparing combination versus monotherapy the same teicoplanin and colistin (serum) concentrations derived from pharmacokinetic studies are used as above.
Each of the total 16 sets as above is performed in duplicates. Each tube is filled with 5 ml CAMHB and in one of each duplicates a 2 cm long piece of a plastic catheter is inserted. Then all tubes are inoculated with the test strain and incubated aerobically at ambient air at 37° C. overnight (16-24 h). The tubes are removed from the incubator and the appropriate blank, mono or combination drug concentrations to be tested are added to each tube and the tubes are incubated aerobically at ambient air at 37° C. for an additional 24 h. The tubes are removed from the incubator and vortexed for about 10 min. Thereafter the catheter pieces from the corresponding one of the duplicates are removed.
From tubes showing growth with turbidity the MIC of CS or TEC in case of testing Gram-positive bacteria for the test strains is determined as above and compared to the original MIC. All tubes showing growth or no growth according to turbidity are centrifuged for 10 min at 3000 rpm and about 100 μL of the sediment is transferred onto IsoSensitest agar plate supplemented with 5% blood (Oxoid) and containing concentrations of CS of 4 mg/L, 8 mg/L, 16 mg/L, and 32 mg/L—or TEC of 4 mg/L, 8 mg/L, 16 mg/L in case a Gram-positive strain is tested. After overnight incubation the number of CFUs growing on the plates containing different CS concentrations—or TEC concentrations in case a Gram-positive strain is tested—are counted.

[3] = cited from earlier work

CCC(C)CCCC(=O)N[C@@H](CCN)C(=O)N[C@H](C(=O)N[C@@H](CCN)C(=O)N[C@H]1CCNC(=O)[C@H]([C@@H](C)O)NC(=O)[C@H](CCN)NC(=O)[C@H](CCN)NC(=O)[C@H](CC(C)C)NC(=O)[C@@H](CC(C)C)NC(=O)[C@H](CCN)NC1=O)[C@@H](C)O (stereo partly drawn) [CS, colistin sulphate] ({Heptanoyl(5-Me)}-[Dab]T[Dab][Dab][Dab][dL]L[Dab][Dab]T; lactam 4-C)
MBC (A. haemolyticus 1655843; Acinetobacter haemolyticus, 1655843, read-out: MBC): > 16 µg/mL
MIC (S. maltophilia 1237289; Stenotrophomonas maltophilia, inoculum 5*10^5 CFU/ml, 24 h, read-out: MIC): 0.5 µg/mL
MIC (S. maltophilia 1237289; Stenotrophomonas maltophilia, after 48 h growth (values in brackets), read-out: MIC): 8 µg/mL
MBC (S. maltophilia 1237289; Stenotrophomonas maltophilia, inoculum 5*10^5 CFU/ml, read-out: MBC): 8 µg/mL
Elimination of non-multiplying stationary phase bacteria [1]: not as mono substances
MIC (A. nosocomialis 1461911; Acinetobacter nosocomialis, 1461911, 24 h, read-out: MIC): ≥ 4 µg/mL
MBC (A. nosocomialis 1461911; Acinetobacter nosocomialis, 1461911, read-out: MBC): 8 µg/mL
MIC (S. maltophilia 1221783; Stenotrophomonas maltophilia, 1221783, 24 h, read-out: MIC): 0.5 µg/mL
MBC (S. maltophilia 1221783; Stenotrophomonas maltophilia, read-out: MBC): 2 µg/mL
MIC (A. guillouiae 1285286; read-out: MIC): 2 µg/mL
MBC (A. guillouiae 1285286; read-out: MBC): 4 µg/mL
MBC (A. junii 1397597; Acinetobacter junii, 1397597, read-out: MBC): 8 µg/mL
MIC (A. junii 1397597; Acinetobacter junii, read-out: MIC): 2 µg/mL
Elimination of bacteria from biofilm [2]: not so well the case
Colony counts, incubated with as compared without a catheter piece [2]: higher colony counts
Increase (at least two dilution steps) of MIC, incubated with as compared without a catheter piece [2]: about one third

teicoplanin [TP]
MIC (A. haemolyticus 1655843; A. haemolyticus 1655843, 24 h): >64 µg/mL
MBC (A. haemolyticus 1655843): >64 µg/mL
MIC (S. maltophilia 1237289; inoculum 5*10^5 CFU/ml, 24 h): >64 (>64) mg/l
MIC (S. maltophilia 1237289; after 48 h growth (values in brackets)): >64 (>64) mg/l
MBC (S. maltophilia 1237289; inoculum 5*10^5 CFU/ml): >64 µg/mL
Elimination of non-multiplying stationary phase bacteria [1]: not as mono substances
MIC (A. nosocomialis 1461911): >64 µg/mL
MBC (A. nosocomialis 1461911): >64 µg/mL
MIC (S. maltophilia 1221783): >64 µg/mL
MBC (S. maltophilia 1221783): >64 µg/mL
MIC (A. guillouiae 1285286): >64 µg/mL
MBC (A. guillouiae 1285286): >64 µg/mL
MIC (A. junii 1397597): >64 µg/mL
MBC (A. junii 1397597): >64 µg/mL
terminal half-life, median (range) ([3]; Antony et al 1991): 168 (111-278) h
terminal half-life, mean (±SD) ([3]; Outman et al 1990): 157 (±93) h
Elimination of bacteria from biofilm [2]: not so well the case
Colony counts, incubated with as compared without a catheter piece [2]: higher colony counts
Increase (at least two dilution steps) of MIC, incubated with as compared without a catheter piece [2]: about one third
